{"source": "patent US8507508B2", "about": "“Solid forms of pemetrexed” (Dr. Reddy's Laboratories Limited, priority 2007, dated 2013)", "test": "Physical stability on storage, checked by retention of the original XRPD pattern", "format": "physicochemical", "excerpt": "All XRPD data reported herein were obtained using a Bruker or PANalytical AXS D8 Advance Powder X-ray Diffractometer at Cu Kα radiation, having the wavelength 1.5418 Å. Since some margin of error is possible in the assignment of 2 theta angles and d-spacings, the preferred method of comparing X-ray powder diffraction patterns in order to identify a particular crystalline form is to overlay the X-ray powder diffraction pattern of the unknown form over the X-ray powder diffraction pattern of a known form. For all analytical data discussed in this application, it should be kept in mind that specific values depend on many factors, e.g., specific instrument, sample preparation and individual operator.\nThe obtained sample kept in a sealed polythene bag at a temperature of 20° C. to 25° C. for a period of 58 days to check the physical stability.\nThe obtained sample kept in a sealed polythene bag at a temperature of 20 to 25° C. for a period of 7 days to check the physical stability.\nThe obtained sample kept in a sealed polythene bag at a temperature of 20 to 25° C. for a period of 3 days to check the physical stability.\nThe sample was kept in a petri dish and stored at room temperature for a period of 24 hours to check the physical stability.", "data": [{"smiles": "Nc1nc2[nH]cc(CCc3ccc(C(=O)N[C@@H](CCC(=O)[O-])C(=O)[O-])cc3)c2c(=O)[nH]1.[Na+].[Na+]", "note": "[Example 1, Amorphous Pemetrexed Disodium]", "values": [{"measurement": "physical stability (XRPD and physical observation)", "setting": "sealed polythene bag, 20° C. to 25° C., 58 days", "value": "retain its amorphous nature"}]}, {"smiles": "Nc1nc2[nH]cc(CCc3ccc(C(=O)N[C@@H](CCC(=O)[O-])C(=O)[O-])cc3)c2c(=O)[nH]1.[Na+].[Na+]", "note": "[Example 4, Amorphous Pemetrexed Disodium]", "values": [{"measurement": "physical stability (XRPD)", "setting": "petri dish, room temperature, 24 hours", "value": "retain its polymorphic form"}, {"measurement": "physical stability (XRPD)", "setting": "sealed polythene bag, 20 to 25° C., 3 days", "value": "retain its polymorphic form"}]}, {"smiles": "Nc1nc2[nH]cc(CCc3ccc(C(=O)N[C@@H](CCC(=O)[O-])C(=O)[O-])cc3)c2c(=O)[nH]1.[Na+].[Na+]", "note": "[Example 3, Amorphous Pemetrexed Disodium]", "values": [{"measurement": "physical stability (XRPD)", "setting": "sealed polythene bag, 20 to 25° C., 7 days", "value": "retain its amorphous form"}]}]}
